Assay results as given in US9562899B2, “Method of detecting OXA-048 carbapenemase producing bacteria” (BIOMÉRIEUX, priority 2012, dated 2017).

What was measured:
Format in all cases: cell-based, Enterobacteriaceae
NDM-1 strains = conditions: class B CPEs of NDM type; proportionally to the EDTA concentration used
Description: (§1) Optimization of the Detection Specificity by Introducing Specific Inhibitors Inhibition of Class B Strains (NDM, VIM, IMP) by Adding EDTA
(§2) Identical to that used to determine the temocillin MICs by agar dilution (example 1).
(§3) For each temocillin concentration, the following concentrations of active EDTA will be tested in the form of disodium EDTA: 0, 1.77, 2.12, 2.47 and 2.83 mmol/l.
(§4) Method: identical to the method used in example 1.

[1] = tested on: strains with impermeability-mediated resistance (IR); conditions: strains with impermeability-mediated resistance to carbapenems (IR)
Description: as §1, §2, §3, §4

VIM strains = conditions: class B CPEs of VIM type; proportionally to the EDTA concentration used
Description: as §1, §2, §3, §4

O=C(O)CN(CCN(CC(=O)O)CC(=O)O)CC(=O)O [EDTA]
effect of EDTA on temocillin MIC (NDM-1 strains): decrease in their MIC | effect of EDTA on temocillin MIC [1]: slight increase in the MICs | effect of EDTA on temocillin MIC (VIM strains): decrease in their MIC
